These results are taken from patent US7323447B2, “Hepatitis C virus inhibitors” (Bristol-Myers Squibb Company, priority 2005, dated 2008).

The target of the assay is T1, HCV NS3/4A protease complex (J4L6S strain) (Hepatitis C virus genotype 1b, UniProt O92972, C1454S/C1711G).
T1 construct: DNA encoding the recombinant HCV NS3/4A protease complex (amino acids 1027 to 1711) for these strains; inferred from pET21b vector and Ni-NTA purification; made in house; host or cells: Escherichia coli BL21 (DE3), pET21b
Put plainly: FRET peptide assay to monitor HCV NS3/4A proteolytic activity, J4L6S strain. Format: biochemical. An excerpt: HCV NS3 protease complexes, derived from the BMS strain, H77 strain or J4L6S strain, were generated, as described below. These purified recombinant proteins were generated for use in a homogeneous assay (see below) to provide an indication of how effective compounds of the present disclosure would be in inhibiting HCV NS3 proteolytic activity.
The H77 and J4L6S strains were used for production of recombinant NS3/4A protease complexes. DNA encoding the recombinant HCV NS3/4A protease complex (amino acids 1027 to 1711) for these strains was manipulated as described by P. Gallinari et al. (see Gallinari P, Paolini C, Brennan D, Nardi C, Steinkuhler C, De Francesco R. Biochemistry. 38(17):5620-32, (1999)). Briefly, a three-lysine solubilizing tail was added at the 3′-end of the NS4A coding region. The cysteine in the P1 position of the NS4A-NS4B cleavage site (amino acid 1711) was changed to a glycine to avoid the proteolytic cleavage of the lysine tag. Furthermore, a cysteine to serine mutation was introduced by PCR at amino acid position 1454 to prevent the autolytic cleavage in the NS3 helicase domain. […]

SMILES strings stand for the structures. pIC50: −log10 of the molar value.

T1 sequence (O92972 1027-1711 C1454S/C1711G, one chain of several): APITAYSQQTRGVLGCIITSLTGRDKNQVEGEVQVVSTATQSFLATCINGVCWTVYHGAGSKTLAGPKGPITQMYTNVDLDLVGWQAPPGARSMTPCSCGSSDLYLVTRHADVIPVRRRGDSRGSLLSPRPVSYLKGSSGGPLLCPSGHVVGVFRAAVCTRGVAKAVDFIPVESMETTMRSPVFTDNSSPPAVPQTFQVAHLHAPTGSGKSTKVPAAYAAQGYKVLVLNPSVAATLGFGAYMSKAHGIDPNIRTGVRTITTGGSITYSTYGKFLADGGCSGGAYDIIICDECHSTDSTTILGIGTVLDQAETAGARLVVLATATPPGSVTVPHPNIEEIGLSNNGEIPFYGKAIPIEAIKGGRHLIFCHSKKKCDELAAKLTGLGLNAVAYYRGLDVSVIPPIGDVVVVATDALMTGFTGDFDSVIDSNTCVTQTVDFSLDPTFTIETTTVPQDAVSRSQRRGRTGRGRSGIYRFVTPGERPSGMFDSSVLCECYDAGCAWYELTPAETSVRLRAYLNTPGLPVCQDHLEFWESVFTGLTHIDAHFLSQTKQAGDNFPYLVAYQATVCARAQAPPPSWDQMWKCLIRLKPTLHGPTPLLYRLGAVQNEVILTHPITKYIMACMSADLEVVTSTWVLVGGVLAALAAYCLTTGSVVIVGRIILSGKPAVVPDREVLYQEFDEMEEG

In general, pIC50 refers to the IC50 on a negative log10 scale, so that one unit is a factor of ten. The low end stands for a high IC50, the high end for a low IC50. For `C=C[C@@H]1C[C@]1(NC(=O)[C@@H]1C[C@@H](OC(=O)N2Cc3cccc(F)c3C2)CN1C(=O)[C@@H](OC(=O)NC(C)(C)C)C(C)(C)C)C(=O)NS(=O)(=O)C1CC1` [Example 56Compound 56], the pIC50 was 8.01.
